In US8987195B2 (priority 2012, dated 2015):
Like-named read-outs stand apart in the source and are kept apart here.

Key:
HCV genotype 1b replicon = assay: HCV replicon assay, genotype 1b replicon EC50; assay type: cell-based, Hepatitis C virus; conditions: Hepatitis C virus, genotype 1b replicon, read-out: EC50 [gt-1b]
In short: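 Replicon cells (Neo^r, some luciferase:Neo^r fusion); G418 removed at plating; compound dilution series, 24-48 h. Readout: RNA by 32P-probe hybridization/protection or TaqMan, normalized to cyclophilin A RNA, or luciferase. EC50 vs DMSO control, 4-parameter fit.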

[1] = molecular target: HCV NS3/4A protease genotype 1b (Hepatitis C virus genotype 1b, UniProt P26663); assay: HCV NS3/4A protease time-resolved fluorescence (TRF) assay, Ki against genotype 1b; assay type: biochemical; conditions: IC50 [gt-1b] (nM), NS3/4A genotype 1b, enzyme 0.2 nM
In short: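 NS3/4A enzyme was preincubated 30 min with inhibitor in 50 mM HEPES pH 7.5, 150 mM NaCl, 15% glycerol, 0.15% Triton X-100, 10 mM DTT, 0.1% PEG 8000; 25 nM europium TRF peptide substrate added, 2.5 h at room temperature. Enzyme: 0.2 nM (1b), 0.4 nM (A156T), 0.025 nM (3a). Ki from IC50 via Cheng-Prusoff.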

Compound	EC50 (HCV genotype 1b replicon) [nM]	IC50 [1] [nM]	EC50 (HCV genotype 1b replicon; K+ salt) [nM]	IC50 ([1]; K+ salt) [nM]
Cc1ccnc(N[C@H]2CCCCC/C=C\[C@@H]3C[C@@]3(C(=O)NS(=O)(=O)C3(C)CC3)NC(=O)[C@@H]3C[C@]4(CCc5c(c(C)nc6ccccc56)O4)CN3C2=O)c1 [Example 350, (2R,6S,12Z,13aS,14aR,16aS)-5′-methyl-N-[(1-methylcyclopropyl)sulfonyl]-6-[(4-methylpyridin-2-yl)amino]-5,16-dioxo-1,1′,2′,6,7,8,9,10,11,13a,14,15,16,16a-tetradecahydrospiro[cyclopropa[e]pyrrolo[1,2-a][1,4]diazacyclopentadecine-2,3′-pyrano[2,3-c]quinoline]-14a(5H)-carboxamide]	2.84	0.035		
COc1ccc2nc(C(F)(F)F)c3c(c2c1)CC[C@]1(C[C@H]2C(=O)N[C@]4(C(=O)NS(=O)(=O)C5(C)CC5)C[C@H]4/C=C\CCCCC[C@H](NC(=O)O[C@@H](C)C(C)C)C(=O)N2C1)O3 [Example 351, (2S)-3-methylbutan-2-yl [(2R,6S,12Z,13aS,14aR,16aS)-9′-methoxy-14a-{[(1-methylcyclopropyl)sulfonyl]carbamoyl}-5,16-dioxo-5′-(trifluoromethyl)-1,1′,2′,5,6,7,8,9,10,11,13a,14,14a,15,16,16a-hexadecahydrospiro[cyclopropa[e]pyrrolo[1,2-a][1,4]diazacyclopentadecine-2,3′-pyrano[2,3-c]quinolin]-6-yl]carbamate]			2.19	0.029
COc1ccc2nc(C(C)C)c3c(c2c1)[C@H](F)C[C@]1(C[C@H]2C(=O)N[C@]4(C(=O)NS(=O)(=O)C5(C)CC5)C[C@H]4/C=C\CCCCC[C@H](NC(=O)OC(C)(C)C(F)(F)F)C(=O)N2C1)O3 [Example 352, 1,1,1-trifluoro-2-methylpropan-2-yl [(1′R,2S,6S,12Z,13aS,14aR,16aS)-1′-fluoro-9′-methoxy-14a-{[(1-methylcyclopropyl)sulfonyl]carbamoyl}-5,16-dioxo-5′-(propan-2-yl)-1,1′,2′,5,6,7,8,9,10,11,13a,14,14a,15,16,16a-hexadecahydrospiro[cyclopropa[e]pyrrolo[1,2-a][1,4]diazacyclopentadecine-2,3′-pyrano[2,3-c]quinolin]-6-yl]carbamate]			1.45	0.042
Cc1nc2ccccc2c2c1O[C@]1(CC2)C[C@H]2C(=O)N[C@]3(C(=O)NS(=O)(=O)C4(C)CC4)C[C@H]3/C=C\CCCCC[C@H](Nc3ccccn3)C(=O)N2C1 [Example 353, (2R,6S,12Z,13aS,14aR,16aS)-5′-methyl-N-[(1-methylcyclopropyl)sulfonyl]-5,16-dioxo-6-(pyridin-2-ylamino)-1,1′,2′,6,7,8,9,10,11,13a,14,15,16,16a-tetradecahydrospiro[cyclopropa[e]pyrrolo[1,2-a][1,4]diazacyclopentadecine-2,3′-pyrano[2,3-c]quinoline]-14a(5R)-carboxamide]	39.5	0.111		
COc1ccc2nc(C)c3c(c2c1)[C@@H](F)C[C@]1(C[C@H]2C(=O)N[C@]4(C(=O)NS(=O)(=O)C5(C)CC5)C[C@H]4/C=C\CCCCC[C@H](NC(=O)OC(C)(C)C)C(=O)N2C1)O3 [Example 354, tert-butyl [(1′S,2S,6S,12Z,13aS,14aR,16aS)-1′-fluoro-9′-methoxy-5′-methyl-14a-{[(1-methylcyclopropyl)sulfonyl]carbamoyl}-5,16-dioxo-1,1′,2′,5,6,7,8,9,10,11,13a,14,14a,15,16,16a-hexadecahydrospiro[cyclopropa[e]pyrrolo[1,2-a][1,4]diazacyclopentadecine-2,3′-pyrano[2,3-c]quinolin]-6-yl]carbamate]	103	0.169		
